The results in this text go back to patent publication US6458838B1, “Adrenoleukodystrophy treatments” (Johns Hopkins University, priority 1999, dated 2002).

Series [1] concerns human lymphoblastoid cells (EBV-transformed lymphocytes) derived from X-ALD patients. Kind of series: VLCFA (C24:0, C26:0) levels in cultured cells, capillary GC. The format is cell-based. The following applies: for C26:0 Percent Correction: 5 mM 4PBA. As to the method:
(§1) The genotypes of the X-ALD patients included missense, nonsense, frame shift and deletion mutations and all of the main clinical phenotypes.
Cell lines derived from X-ALD patients and X-ALD mice were grown in MEM (fibroblasts) or RPMI (ymphoblastoid cells) supplemented with fetal calf serum (10%), penicillin (100 U/ml), streptomycin (100 U/mi) and glutamine (2 mM). […] Cells in the second flask were grown without drug for the same length of time and served as controls. The media were changed every 3-4 days.
(§2) Biochemical measurements. […] For VLCFA measurements, total lipids were extracted, converted to methyl esters, purified by TLC and subjected to capillary GC analysis as described. Duplicate assays were set up independently and were assayed on different days. C24:0 β-oxidation activity of human and mouse fibroblasts and human lymphoblastoid cells was determined by measuring their capacity to degrade [1-^14C]-C24:0 fatty acid (American Radiolabeled Chemicals, St Louis, Mo.) to water-soluble products as described. Phytanic acid oxidation was measured as described. Cells were incubated with [2,3-^3H]-phytanic acid for 24 hours, and the release of ^3H-H2O to the aqueous medium was determined (activity in pmol/hr per mg protein).

In series [2] the test system is human primary fibroblasts. Description: Toxicity of 4-PBA concentration in culture. The format is cell-based. The following applies: data not shown.
Description: as §1

Series [3] concerns mouse primary fibroblasts. Description: Toxicity of 4-PBA concentration in culture. The format is cell-based. The following applies: data not shown.
Description: as §1

In series [4] the test system is ALDP. Kind of series: Semi-quantitative RT-PCR in primary fibroblasts. Type of series: cell-based, human. The following applies: normal primary fibroblasts, 5 mM 4-PBA for 2 days. The protocol: (§3) Semi-quantitative RT-PCR was done on the mRNA isolated from these cells (FIG. 1). […] In addition, the expression of acyl-CoA oxidase (AOX), the rate-limiting enzyme in VLCFA β-oxidation, was not affected. Although previous studies have reported that ALDR mRNA was not detectable in fibroblasts by either northern or RT-PCR analyses, those RT-PCR studies used about 66 ng of CDNA; we used about 250 ng of cDNA.
(§4) Semi-quantitative RT-PCR analysis. Total RNA from tissue culture cells (10^6-10^7 cells/sample) was isolated using TRizol Reagent™ (Life Technologies), treated with DNase I (100-200 units in 40 mM HCI, 10 mM NaCl, 6 mM MgCl2, pH 7.3), incubated at 37° C. for 30 min, extracted with phenol/chloroform, and precipitated with isopropanol. cDNA was generated using MMLV reverse transcriptase (RT) (Life Technologies). PCR was done in the linear range of amplification (determined for each primerpair-cDNA combination). For each cDNA sample, a ‘cocktail’ was prepared, containing PCR buffer (Promega), 200 µM of each DNTP, 1.5 mM MgCl2, 250 ng cDNA, 0.25 U of Taq polymerase (Promega) and […]. The ‘cocktail’ was divided into separate tubes containing cDNA specific primers.
(§5) Primers. The PCR primers used are listed below. In the parentheses, h indicates human and m, mouse; this is followed by the gene name, product size and annealing temperature. For primer sequences, F is forward and R is reverse. […]

Series [5] deals with PMP69. Kind of series: Semi-quantitative RT-PCR in primary fibroblasts. Type of series: cell-based, human. The following applies: X-ALD or normal primary fibroblasts, 5 mM 4-PBA for 2 days. As to the method:
as §3, §4, §5

In series [6] the test system is PMP70. Kind of series: Semi-quantitative RT-PCR in primary fibroblasts. The following applies: X-ALD or normal primary fibroblasts, 5 mM 4-PBA for 2 days. Type of series: cell-based, human. As to the method: as §3, §4, §5
Series [7] deals with human primary fibroblasts. Kind of series: Phytanic acid oxidation ([2,3-3H]-phytanic acid, release of 3H-H2O). Type of series: cell-based. The following applies: 5 mM 4-PBA for 10 days.
Description: The increase in phytanic acid oxidation activity was significant (P<0.001 5(n=4) for X-ALD primary fibroblasts and P<0.013 (n=3) for normal primary fibroblasts). […] The relative amount of SCP2 protein was compared to the housekeeping gene β-actin.
Phytanic acid oxidation occurs exclusively in the peroxisomal matrix and can therefore serve as a marker for peroxisomal function. […] SCP2 is a 15-kDa protein located exclusively in the peroxisomal matrix.
as §2

The test system of series [8] is X-ALD mice. Description: In vivo efficacy: VLCFA levels in brain and adrenal glands after dietary 4-PBA. Also on record: species or system mouse. As to the method:
To measure the in vivo efficacy of 4-PBA, we supplemented mouse chow and water with 4-PBA.
AMN and Addison-only. […] In vivo delivery of 4-PBA to X-ALD mice. 4-PBA was delivered to X-ALD mice in their regular chow and water. 4-PBA chow was prepared by B'OServ (Holton Industries, Frenchtown, N.J.). […] Brains and adrenal glands from normal LD and X-ALD/4-PBA mice were collected for VLCFA analysis as described.
as §2

Values joined by “and” are separate entries in the source; they are usually repeats but may differ in a detail not shown here. Equal entries are not always repeated. “Also recorded” adds a separate entry of the source.

As to `O=C(O)CCCc1ccccc1` [4-PBA, 4-Phenyl butyrate], in series [1] (5 mM 4-PBA), the “time of treatment until C24:0 and C26:0 levels were normalized” value is given as at most 10 days. For the same compound, the “C26:0 Percent Correction” value in series [1] (exposure 6 days) turned out to be 71%; in series [1] (exposure 10 days), 90%. Further, the “concentrations toxic for cells” value in series [2] and in series [3] was “exceeding 7.5 mM” in each case. Further, in series [4], the “ALDP expression (mRNA)” value is “little, if any, effect”. Also, in series [5], the PMP69 expression level entry is “little, if any, effect”. Besides, in series [6], the PMP70 expression level entry is on record as “little, if any, effect”. The phytanic acid oxidation entry in series [7] (X-ALD human primary fibroblasts) and in series [7] (normal human primary fibroblasts) was “twofold increase” throughout. Also, the “adrenal gland VLCFA (C24:0 and C26:0) levels” value in series [8] (dietary 4-PBA for 4 weeks) is reported as “substantial reduction”. Also, the “brain VLCFA (C24:0 and C26:0) levels” value in series [8] (dietary 4-PBA for 4 weeks) was “substantial reduction”. The “correction of brain C24:0 level” value in series [8] (dietary 4-PBA for 6 weeks) is recorded as “complete correction; also recorded: complete normalization”. Moreover, in series [8] (dietary 4-PBA for 6 weeks), the “correction of brain C26:0 level” value was 78% and 80%.
